Results on one molecule are retold here after BindingDB's records for doi:10.1038/46290 (University of Bristol, 1999).

The target in this test is Glutamate receptor ionotropic, kainate 2 (Homo sapiens, UniProt Q13002).

The term Ki denotes the dissociation constant of the complex between target and ligand, obtained from inhibition or displacement. Low values mean higher affinity, high ones lower affinity.

Glutamate receptor ionotropic, kainate 2, sequence (Q13002 whole entry): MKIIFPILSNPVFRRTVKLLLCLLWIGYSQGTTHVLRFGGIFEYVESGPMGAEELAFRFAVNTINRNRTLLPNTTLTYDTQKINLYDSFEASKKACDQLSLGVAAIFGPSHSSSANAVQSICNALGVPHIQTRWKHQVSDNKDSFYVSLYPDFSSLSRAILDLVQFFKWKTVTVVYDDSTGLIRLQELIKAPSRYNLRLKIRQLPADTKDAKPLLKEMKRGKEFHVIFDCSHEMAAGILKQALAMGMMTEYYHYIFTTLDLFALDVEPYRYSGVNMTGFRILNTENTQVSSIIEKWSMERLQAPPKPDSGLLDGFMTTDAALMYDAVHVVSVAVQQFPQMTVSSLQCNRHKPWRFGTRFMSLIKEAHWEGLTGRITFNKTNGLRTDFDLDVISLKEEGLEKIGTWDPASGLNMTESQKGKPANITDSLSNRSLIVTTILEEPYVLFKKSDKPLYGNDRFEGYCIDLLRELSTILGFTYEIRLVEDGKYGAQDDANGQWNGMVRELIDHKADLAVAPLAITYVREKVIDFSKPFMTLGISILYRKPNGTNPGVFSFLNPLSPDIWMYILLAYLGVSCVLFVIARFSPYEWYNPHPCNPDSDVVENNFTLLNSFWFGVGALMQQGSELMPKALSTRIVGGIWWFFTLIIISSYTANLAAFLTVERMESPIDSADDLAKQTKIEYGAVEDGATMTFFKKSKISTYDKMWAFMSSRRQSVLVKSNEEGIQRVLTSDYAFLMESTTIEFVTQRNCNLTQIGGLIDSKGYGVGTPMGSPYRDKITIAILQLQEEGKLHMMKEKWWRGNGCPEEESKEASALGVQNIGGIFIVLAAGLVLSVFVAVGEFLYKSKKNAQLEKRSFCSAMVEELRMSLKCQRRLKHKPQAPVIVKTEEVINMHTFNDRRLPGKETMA

Consider `O=C(O)c1ccc(C[C@H]2CC[C@H]3CN[C@H](C(=O)O)C[C@H]3C2)cc1` [LY 382884], for which the Ki was more than 10 µM.
